{"source": "patent US9302999B2", "about": "“Substituted triazoles as herbicides” (E. I. DU PONT DE NEMOURS AND COMPANY, priority 2012, dated 2016)", "type_in_all_cases": "in vivo", "key": {"[1]": {"test_system": "ryegrass, Italian (Italian ryegrass, Lolium multiflorum)", "test": "Test E pre-/postemergence: ryegrass, Italian", "settings": "scale 0 to 100", "outline": "(§1)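 Visual injury scored 0–100 (0 no effect, 100 complete control) against controls after 14 to 21 days in greenhouse. Compounds formulated in surfactant-containing non-phytotoxic solvent, applied pre-emergence to seeded silt loam or post-emergence to 1- to 4-leaf plants in peat-based medium.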"}, "[2]": {"test_system": "arrowleaf sida (Sida rhombifolia)", "test": "Test E pre-/postemergence: arrowleaf sida", "settings": "scale 0 to 100", "outline": "as §1"}, "[3]": {"test_system": "velvetleaf (Abutilon theophrasti)", "test": "Test E pre-/postemergence: velvetleaf", "settings": "Preemergence, scale 0 to 100", "source_text": "(§2) Seeds of plant species selected from corn (Zea mays), soybean (Glycine max), velvetleaf (Abutilon theophrasti), lambsquarters (Chenopodium album), poinsettia, wild (wild poinsettia, Euphorbia heterophylla), pigweed, palmer (palmer pigweed, Amaranthus palmeri), waterhemp (common waterhemp, Amaranthus rudis), smartweed (ladysthumb smartweed, Polygonum persicaria), surinam grass (Brachiaria decumbens), crabgrass, large (large crabgrass, Digitaria sanguinalis), crabgrass, Brazil (Brazilian crabgrass, Digitaria horizontalis), panicum, fall (fall panicum, Panicum dichotomiflorum), foxtail, giant (giant foxtail, Setaria faberii), foxtail, green (green foxtail, Setaria viridis), goosegrass (Eleusine indica), johnsongrass (Sorghum halepense), ragweed (common ragweed, Ambrosia elation), barnyardgrass (Echinochloa crus-galli), sandbur (southern sandbur, Cenchrus echinatus), arrowleaf sida (Sida rhombifolia), ryegrass, Italian (Italian ryegrass, Lolium multiflorum), dayflower, (VA) (Virginia dayflower, Commelina virginica), field bindweed (Convolvulus arvensis), cocklebur (common cocklebur, Xanthium strumarium), morningglory (Ipomoea coccinea), nightshade (eastern black nightshade, Solanum ptycanthum), kochia (Kochia scoparia), nutsedge, yellow (yellow nutsedge, Cyperus esculentus) and beggarticks (hairy beggarticks, Bidens pilosa) were planted into a silt loam soil and treated preemergence with test chemicals formulated in a non-phytotoxic solvent mixture which included a surfactant. At the same time, plants selected from these crop and weed species were planted in pots containing a growing medium comprising spaghnum peat moss, vermiculite, wetting agent and starter nutrients and treated with postemergence applications of some of the test chemicals formulated in the same manner. Plants ranged in height from 2 to 18 cm for postemergence treatments (1- to 4-leaf stage).\n(§3) Treated plants and controls were maintained in a greenhouse for 14 to 21 days, after which time all species were compared to controls and visually evaluated. Plant response ratings, summarized in Table E, are based on a scale of 0 to 100 where 0 is no effect and 100 is complete control. A dash (-) response means no test result."}, "kochia (Kochia scoparia)": {"test_system": "kochia (Kochia scoparia)", "test": "Test E pre-/postemergence: kochia", "settings": "Preemergence, scale 0 to 100", "source_text": "as §2, §3"}, "[4]": {"test_system": "foxtail, green (green foxtail, Setaria viridis)", "test": "Test E pre-/postemergence: foxtail, green", "settings": "Preemergence, scale 0 to 100", "outline": "as §1"}, "[5]": {"test_system": "pigweed, palmer (palmer pigweed, Amaranthus palmeri)", "test": "Test E pre-/postemergence: pigweed, palmer", "settings": "scale 0 to 100", "outline": "as §1"}, "[6]": {"test_system": "lambsquarters (Chenopodium album)", "test": "Test E pre-/postemergence: lambsquarters", "settings": "Preemergence, scale 0 to 100", "outline": "as §1"}, "[7]": {"test_system": "dayflower, (VA) (Virginia dayflower, Commelina virginica)", "test": "Test E pre-/postemergence: dayflower, (VA)", "settings": "scale 0 to 100", "source_text": "as §2, §3"}}, "data": [{"compound": "Cc1nn(-c2ccc(C(F)(F)F)cc2)nc1Oc1ccnc(C(F)(F)F)c1", "note": "[Compound 120]", "values": [{"measurement": "Plant response rating: Ryegrass, Italian", "setting": "[1]; Postemergence, 8 g ai/ha", "result": 0}, {"measurement": "Plant response rating: Ryegrass, Italian", "setting": "[1]; Postemergence, 16 g ai/ha", "result": 10}, {"measurement": "Plant response rating: Ryegrass, Italian", "setting": "[1]; Postemergence, 31 g ai/ha", "result": 15}, {"measurement": "Plant response rating: Ryegrass, Italian", "setting": "[1]; Postemergence, 62 g ai/ha", "result": 20}, {"measurement": "Plant response rating: Ryegrass, Italian", "setting": "[1]; Postemergence, 125 g ai/ha", "result": 35}, {"measurement": "Plant response rating: Ryegrass, Italian", "setting": "[1]; Preemergence, 16 g ai/ha", "result": 0}, {"measurement": "Plant response rating: Ryegrass, Italian", "setting": "[1]; Preemergence, 31 g ai/ha", "result": 35}, {"measurement": "Plant response rating: Ryegrass, Italian", "setting": "[1]; Preemergence, 62 g ai/ha", "result": 35}, {"measurement": "Plant response rating: Ryegrass, Italian", "setting": "[1]; Preemergence, 125 g ai/ha", "result": 90}, {"measurement": "Plant response rating: Ryegrass, Italian", "setting": "[1]; Preemergence, 250 g ai/ha", "result": 98}, {"measurement": "Plant response rating: Arrowleaf Sida", "setting": "[2]; Postemergence, 8 g ai/ha", "result": 30}, {"measurement": "Plant response rating: Arrowleaf Sida", "setting": "[2]; Postemergence, 16 g ai/ha", "result": 40}, {"measurement": "Plant response rating: Arrowleaf Sida", "setting": "[2]; Postemergence, 31 g ai/ha", "result": 40}, {"measurement": "Plant response rating: Arrowleaf Sida", "setting": "[2]; Postemergence, 62 g ai/ha", "result": 50}, {"measurement": "Plant response rating: Arrowleaf Sida", "setting": "[2]; Postemergence, 125 g ai/ha", "result": 50}, {"measurement": "Plant response rating: Arrowleaf Sida", "setting": "[2]; Preemergence, 16 g ai/ha", "result": 0}, {"measurement": "Plant response rating: Arrowleaf Sida", "setting": "[2]; Preemergence, 31 g ai/ha", "result": 0}, {"measurement": "Plant response rating: Arrowleaf Sida", "setting": "[2]; Preemergence, 62 g ai/ha", "result": 0}, {"measurement": "Plant response rating: Arrowleaf Sida", "setting": "[2]; Preemergence, 125 g ai/ha", "result": 15}, {"measurement": "Plant response rating: Arrowleaf Sida", "setting": "[2]; Preemergence, 250 g ai/ha", "result": 50}, {"measurement": "Plant response rating: Velvetleaf", "setting": "[3]; 16 g ai/ha", "result": 15}, {"measurement": "Plant response rating: Velvetleaf", "setting": "[3]; 31 g ai/ha", "result": 30}, {"measurement": "Plant response rating: Velvetleaf", "setting": "[3]; 62 g ai/ha", "result": 35}, {"measurement": "Plant response rating: Velvetleaf", "setting": "[3]; 125 g ai/ha", "result": 50}, {"measurement": "Plant response rating: Velvetleaf", "setting": "[3]; 250 g ai/ha", "result": 65}, {"measurement": "Plant response rating: Kochia", "setting": "kochia (Kochia scoparia); 16 g ai/ha", "result": 0}, {"measurement": "Plant response rating: Kochia", "setting": "kochia (Kochia scoparia); 31 g ai/ha", "result": 20}, {"measurement": "Plant response rating: Kochia", "setting": "kochia (Kochia scoparia); 62 g ai/ha", "result": 50}, {"measurement": "Plant response rating: Kochia", "setting": "kochia (Kochia scoparia); 125 g ai/ha", "result": 90}, {"measurement": "Plant response rating: Kochia", "setting": "kochia (Kochia scoparia); 250 g ai/ha", "result": 100}, {"measurement": "Plant response rating: Foxtail, Green", "setting": "[4]; 16 g ai/ha", "result": 15}, {"measurement": "Plant response rating: Foxtail, Green", "setting": "[4]; 31 g ai/ha", "result": 85}, {"measurement": "Plant response rating: Foxtail, Green", "setting": "[4]; 62 g ai/ha", "result": 100}, {"measurement": "Plant response rating: Foxtail, Green", "setting": "[4]; 125 g ai/ha", "result": 100}, {"measurement": "Plant response rating: Foxtail, Green", "setting": "[4]; 250 g ai/ha", "result": 100}, {"measurement": "Plant response rating: Pigweed, Palmer", "setting": "[5]; Postemergence, 8 g ai/ha", "result": 90}, {"measurement": "Plant response rating: Pigweed, Palmer", "setting": "[5]; Postemergence, 16 g ai/ha", "result": 90}, {"measurement": "Plant response rating: Pigweed, Palmer", "setting": "[5]; Postemergence, 31 g ai/ha", "result": 90}, {"measurement": "Plant response rating: Pigweed, Palmer", "setting": "[5]; Postemergence, 62 g ai/ha", "result": 95}, {"measurement": "Plant response rating: Pigweed, Palmer", "setting": "[5]; Postemergence, 125 g ai/ha", "result": 100}, {"measurement": "Plant response rating: Pigweed, Palmer", "setting": "[5]; Preemergence, 16 g ai/ha", "result": 65}, {"measurement": "Plant response rating: Pigweed, Palmer", "setting": "[5]; Preemergence, 31 g ai/ha", "result": 100}, {"measurement": "Plant response rating: Pigweed, Palmer", "setting": "[5]; Preemergence, 62 g ai/ha", "result": 100}, {"measurement": "Plant response rating: Pigweed, Palmer", "setting": "[5]; Preemergence, 125 g ai/ha", "result": 100}, {"measurement": "Plant response rating: Pigweed, Palmer", "setting": "[5]; Preemergence, 250 g ai/ha", "result": 100}, {"measurement": "Plant response rating: Lambsquarters", "setting": "[6]; 16 g ai/ha", "result": 0}, {"measurement": "Plant response rating: Lambsquarters", "setting": "[6]; 31 g ai/ha", "result": 50}, {"measurement": "Plant response rating: Lambsquarters", "setting": "[6]; 62 g ai/ha", "result": 90}, {"measurement": "Plant response rating: Lambsquarters", "setting": "[6]; 125 g ai/ha", "result": 98}, {"measurement": "Plant response rating: Lambsquarters", "setting": "[6]; 250 g ai/ha", "result": 98}, {"measurement": "Plant response rating: Dayflower, VA", "setting": "[7]; Postemergence, 8 g ai/ha", "result": 10}, {"measurement": "Plant response rating: Dayflower, VA", "setting": "[7]; Postemergence, 16 g ai/ha", "result": 10}, {"measurement": "Plant response rating: Dayflower, VA", "setting": "[7]; Postemergence, 31 g ai/ha", "result": 10}, {"measurement": "Plant response rating: Dayflower, VA", "setting": "[7]; Postemergence, 62 g ai/ha", "result": 10}, {"measurement": "Plant response rating: Dayflower, VA", "setting": "[7]; Postemergence, 125 g ai/ha", "result": 15}, {"measurement": "Plant response rating: Dayflower, VA", "setting": "[7]; Preemergence, 16 g ai/ha", "result": 0}, {"measurement": "Plant response rating: Dayflower, VA", "setting": "[7]; Preemergence, 31 g ai/ha", "result": 0}, {"measurement": "Plant response rating: Dayflower, VA", "setting": "[7]; Preemergence, 62 g ai/ha", "result": 50}, {"measurement": "Plant response rating: Dayflower, VA", "setting": "[7]; Preemergence, 125 g ai/ha", "result": 50}, {"measurement": "Plant response rating: Dayflower, VA", "setting": "[7]; Preemergence, 250 g ai/ha", "result": 50}]}]}
